# According to ChEMBL document CHEMBL3507680, “University of Dundee, Gates Library screen for HepG2 cell viability”:
# Test: Human HepG2 cell viability assay in 384 well format
# Assay type: toxicity, cell-based
# Design: dose 125 nL, time 70.5 hour; concentration not given beside the values
# Conditions: HepG2 cells, read-out: Inhibition
row,Compound,cytotoxicity at 70.5 h [%]
1,COCC(=O)N1CCC2(CC1)COCCN2Cc1ccc(F)cc1,-11.6
2,NC(=O)CSCC(=O)NCC1CCCC1,-10.8
3,CCN1CCOC(CNc2nccc(C(F)(F)F)n2)C1 (stereo not drawn),-6.79
4,Cc1ccc(N2CC[C@H]3O[C@@H](C(=O)N4CCCO4)CC[C@H]32)nn1,0.0406
5,O=C1CO[C@@H]2CN(CC3CCOCC3)C[C@H]2N1Cc1ccncc1,-2.17
6,c1ccc(-n2ccc(CN3CCCC3Cn3cccn3)n2)cc1 (stereo not drawn),-13.6
7,CCn1cnnc1C1CCN(C(=O)c2ccc3ccccc3n2)CC1,-3.84
8,CN(C)C(=O)c1ccc(C2CCCN2C(=O)CCC2=NNC(=O)CC2)s1 (stereo not drawn),-14.5
9,Cc1nc(CN2CCCn3c(nc(Cn4cncn4)cc3=O)C2)cs1,22.5
10,Cc1nc(Nc2nncs2)cc(C2CCCN2)n1 (stereo not drawn),-4.59
11,CCn1nc2c(cc1=O)CN(Cc1nc(-c3cccnc3)no1)CC2,-14.4
12,c1coc(CN2CC[C@@H]3O[C@@H](COCC4CCOCC4)CC[C@@H]32)c1,-0.874
13,CCn1c(C)nnc1SCCn1cc(-c2ncc[nH]2)nn1,-5.72
14,COc1ccc(C2C3=C(CCCC3=O)Nc3nc(SC)nc(N)c32)cc1 (stereo not drawn),6.58
15,Cc1cnn(CCNCC(O)COc2ccc3ccccc3c2)c1 (stereo not drawn),-0.298
16,CN(C)C(=O)N1CCCC2(CCN(Cc3ccc(Cl)c(F)c3)C2)C1 (stereo not drawn),-6.53
17,COc1ccccc1N1CCC(CNCc2cccc(OC)c2OC)C1 (stereo not drawn),13.4
18,OCC1CCN(Cc2cc3c(cc2Br)OCCO3)CC1,17.4
19,Cc1ccc2c(c1)N(C(=O)c1cc[nH]c(=O)c1)CC(C)O2 (stereo not drawn),-1.21
20,O=C(NCc1ccc(F)cc1F)C(c1cccnc1)N1CCOCC1 (stereo not drawn),-0.235
21,CC(Cn1cc(Br)cn1)C(=O)Nc1ccncc1 (stereo not drawn),6.88
22,CCCNC(=O)c1[nH]nc(C2CC2)c1Br,-5.95
23,CC(NC1(CNS(C)(=O)=O)CCCC1)c1ccccc1 (stereo not drawn),-16.9

row,Compound,cytotoxicity at 70.5 h [%]
1,CC(CC(=O)c1ccco1)NC(=O)c1ccon1 (stereo not drawn),-8.03
2,CCC(C)NC(=O)c1ccc(CNC(=O)CC(C)(C)C)cc1 (stereo not drawn),-9.82
3,O=C(c1cnn(-c2ccccc2)n1)N1CCCC(n2cccn2)C1 (stereo not drawn),-10.8
4,O=C1NC(c2cnc(C3CCC3)s2)Nc2ccccc21 (stereo not drawn),-9.55
5,CCC[C@@H]1CN(Cc2cc(OC)c3c(c2)OCO3)C[C@H]1C(=O)O,-2.82
6,CC(C(=O)N1CCOCC1)N1CCN(Cc2nccn2C)CC1 (stereo not drawn),-2.07
7,Cc1cc(O)c(OCC(=O)/N=c2\[nH]c(C)cs2)cn1,-2.18
8,O=C(NCc1cncc2c1CCN(C1CCOC1)C2)c1ccco1 (stereo not drawn),-2.1
9,COCCN(Cc1cnn(C)c1)c1nc2c(s1)c(C)nn2C,3.84
10,Cc1cc(NCC(=O)N(C)C)c(C(N)=O)cc1F,-0.553
11,CC1(c2ccccc2)CCCN(Cc2nnc(-c3cccnc3)o2)C1 (stereo not drawn),-3.27
12,O=C(Cc1noc(C(=O)NCCO)n1)Nc1cccc(C(F)(F)F)c1,-22.4
13,CC(CNC(=O)CCCn1cncn1)N1CCc2ccccc2C1 (stereo not drawn),11.6
14,Cc1ccccc1NC(=O)NCC(C)(O)c1cccs1 (stereo not drawn),4.31
15,CN1CCCN(C(=O)c2nc3c(o2)CN(S(C)(=O)=O)C3)CC1,-14.5
16,CCN1CCCCC1C(=O)N1CCN(C(=O)OC)CC1 (stereo not drawn),-5.22
17,CCCc1[nH]n(C)c(=N)c1-c1ccc2c(c1)OCO2,-3.98
18,O=C(C[C@@H]1COC[C@H]2CN(C3CCCC3)C[C@@H]12)N1CCCCO1,-0.83
19,Cc1cccc(CN2C[C@H]3CC[C@@H]2CN(Cc2[nH]cnc2C)C3)n1,-5.25
20,CCOc1cc(CNC(=O)N2CCC(Cc3cnn(C)c3)C2)ccn1 (stereo not drawn),-10.6
21,CC(CNC(=O)Nc1ccc(N(C)C)nc1)Cn1cccn1 (stereo not drawn),-7.16
22,COC(=O)c1oc(CNC(C)(C)c2ccc3c(c2)OCO3)cc1C,19.5
23,O=C1N(c2ccccc2)Cc2nc(=O)[nH]n21,-27.8

row,Compound,cytotoxicity at 70.5 h [%]
1,CNC(=O)c1cccc(CCNC2CCSc3ccccc32)c1 (stereo not drawn),-3.79
2,Cc1oncc1C(=O)N1CCC2(C1)CN(c1cccnc1)C(=O)CN2C (stereo not drawn),-0.201
3,CC(=O)N1CCc2cc(C(=O)O)c(-c3ccsc3)nc2CC1,-0.0308
4,Cc1ncc(C(=O)N2C[C@H]3CC[C@@H]2CN(S(=O)(=O)N(C)C)C3)c(C)n1,-11.5
5,CN1CCCC2(CCN(C(=O)c3ccncc3)C2)C1 (stereo not drawn),7.77
6,Cc1nnnn1-c1cc(NCc2cc(C#N)ccc2F)ccc1F,-10.8
7,Cn1cc(C(=O)CC2CCCN2C(=O)c2coc3ccccc23)cn1 (stereo not drawn),-12.8
8,COc1cccc(C2C3=C(COC3=O)Nc3[nH]nc(C)c32)c1O (stereo not drawn),-3.51
9,CN(C1CCCCC1)S(=O)(=O)NC1CCN(c2ncccn2)CC1,-7.52
10,CCc1cc(C(=O)N2CC[C@@H](c3ccc4c(c3)OCO4)[C@H](O)C2)ccn1,16.7
11,Cc1ccc(OCC(=O)NS(=O)(=O)c2c(C)noc2C)cc1C,25
12,O=C(NC1CCC1)[C@@H]1CC[C@@H]2[C@@H](CCN2CCc2ccccc2)O1,-13.9
13,O=C(NCCCn1ccnc1)Nc1ccn(CCc2ccccn2)n1,-5.67
14,O=C(c1ccnnc1)N1C[C@H](OCc2ccccn2)[C@H]2COC[C@H]21,4.62
15,Cc1noc(C2CCCN(C(=O)c3ccc(F)cc3F)C2)n1 (stereo not drawn),-8.76
16,COC(=O)NCCC(=O)NC(C)Cc1ccccc1Br (stereo not drawn),-7.4
17,COCCCC1(CO)CCCN(C(=O)c2cnc3c(c2)CCCC3)C1 (stereo not drawn),-6.26
18,Cc1ncsc1CCN(C)C(=O)c1c(O)cccc1O,10.9
19,Cc1cc(N2CCC(O)CC2)nc(C2CCCN2C)n1 (stereo not drawn),-5.82
20,Cc1ccnc(C2CCN(S(=O)(=O)c3cn(C)cn3)CC2)n1,-9.62
21,Cc1cc(C(=O)N2CCC3(CC2)c2nc[nH]c2CCN3CC(C)C)no1,7
22,CN(Cc1ccc2c(c1)OCO2)Cc1cscn1,10.1
23,Cc1ccnc(OCC(=O)N2CCC(C(N)=O)CC2)n1,-4.44

row,Compound,cytotoxicity at 70.5 h [%]
1,CN(C1CCN(c2ccccn2)CC1)S(=O)(=O)c1ccc(F)cc1,-6.89
2,Cc1cc(CN(C)c2nc(-c3ccccn3)nc3c2CCNCC3)n[nH]1,-11.1
3,CC(C)c1cc(C(=O)N2CCc3nc(C4CCCN4)ncc3C2)cs1 (stereo not drawn),0.261
4,Cc1c(Cc2ccccc2)c(O)nc2nc(N3CCOCC3)nn12,-8.68
5,CN(C)[C@H]1CN(C(=O)CCc2cccc(F)c2)C[C@@H]1C1CC1,-5.67
6,O=C(Cc1c[nH]c2ccccc12)N1CCC(Nc2ccccc2)CC1,-3.37
7,CN(C)c1ncc(CNC(=O)Nc2ccccc2C(F)(F)F)n1C,18.7
8,COc1ccc(COCC(O)CNC(=O)c2cccc(OC)c2)cc1 (stereo not drawn),-0.933
9,CCc1nnsc1C(=O)NCCn1nc2ccccn2c1=O,31.6
10,COCC(C)NCc1ccc2[nH]c(C)c(C)c2c1 (stereo not drawn),-7.86
11,Cc1cccc(C2(CNC(=O)CCNS(C)(=O)=O)CCCC2)c1,27
12,Cc1cccnc1NCCNC(=O)c1cnc(-c2ccccn2)nc1O,46.5
13,COCCN1CCN(Cc2c(C3CCNCC3)[nH]c3ncccc23)CC1,-2.48
14,O=C(c1cccc(S(=O)(=O)NCCc2ccccn2)c1)N1CCOCC1,-2.52
15,O=C(CCc1ccccc1)N1CCCC(c2n[nH]c3nccnc23)C1 (stereo not drawn),-6.72
16,Cc1nccn1CCC1CCCCN1Cc1ccc(O)cc1Cl (stereo not drawn),15.6
17,Cc1ccccc1CS(=O)(=O)CC(=O)N(C)Cc1cccc(F)c1,-6.34
18,O=C(CC1CN(Cc2ccccc2)CCO1)NCCN1CCOCC1 (stereo not drawn),37.5
19,COc1cccc(OCC(=O)NCc2ccc3[nH]c(=O)[nH]c3c2)c1,-13.7
20,O=C(Cc1n[nH]c2ccccc12)N1CCC(Nc2cccnn2)CC1,-2.23
21,Cc1ccc(CN2Cc3ccnn3CC(C(=O)NCC3CC3)C2)o1 (stereo not drawn),-13.3
22,CCC(C)N(C)C(=O)Nc1ccc(N2CCSCC2)cc1C (stereo not drawn),-5.01
23,COCCNC(=O)c1ccccc1-n1cc(CN)cn1,-1.19

row,Compound,cytotoxicity at 70.5 h [%]
1,CC(C)(C)NCC(=O)N1CCCC(n2ccnc2)C1 (stereo not drawn),-9.3
2,O=C(C[C@H]1[C@H]2CN(Cc3ccsc3)C[C@@H]12)N1CCCC1,-1.9
3,NC(=O)CN1CCC(NCc2cc(C(F)(F)F)ccc2Cl)CC1,-4.69
4,CN(C)S(=O)(=O)N1CCCC(c2nccn2Cc2cccnc2)C1 (stereo not drawn),-4.26
5,Nc1cc(-c2cccs2)nn(CC(=O)NCC2CCCCC2)c1=O,-10
6,CCc1nc(CN(C(C)=O)C2CCN(Cc3ccccc3F)C2)no1 (stereo not drawn),-7.96
7,CN1CCN([C@@H]2CN(C(=O)c3cc4cccc(F)c4[nH]3)C[C@H]2O)CC1,-1.94
8,Cc1ccoc1C(=O)NC1CCN(CC(=O)N(C)c2ccccc2)CC1,18
9,CCc1cc(N[C@H](C(N)=O)C(C)C)n2nc(C)c(C)c2n1,-6.29
10,N#Cc1ccc(SCCOCCO)c(F)c1,-8.55
11,CNS(=O)(=O)c1c(C)sc2ccccc12,-0.847
12,Cn1cc(CNC2CC3(CCN(S(C)(=O)=O)CC3)c3ccccc32)cn1 (stereo not drawn),-11.7
13,CC(C)Oc1ccc(CN2CCCC(N3CCOCC3)C2)cc1CO (stereo not drawn),-5.76
14,O=C(c1cnns1)N1CCN(Cc2ccc(F)cc2Cl)CC1,-4.81
15,COc1ccc2cnn(CC(=O)NCC3CCCO3)c(=O)c2c1OC (stereo not drawn),-3.4
16,Cc1ccccc1C(=O)Nc1cnn(CCN2CCOCC2)c1,5.4
17,Cc1ccc(CNC(=O)NC(C)CN2CCOCC2)s1 (stereo not drawn),-6.15
18,COCc1nc2c(o1)CN(C(=O)NCc1ccccc1)C2,-12.9
19,O=C1C[C@H]2[C@@H](CCN2C(=O)Cc2ccccc2)N1Cc1cccnc1,-8.76
20,CNC(=O)[C@@H](C1CC1)N1CCC[C@H]1C(=O)NCC(C)C,-7.95
21,CCOCC1COCCC12CCN(C(=O)CS(C)(=O)=O)CC2 (stereo not drawn),-4.64
